# Reference: patent publication US5861476A, “Peptides and compounds that bind to the IL-1 receptor” (Affymax Technologies N.V., priority 1995, dated 1999)
# Where a SMILES comes first, the peptide text is derived from it. [ ]: non-standard residue; d: D form. Bpa = N[C@@H](Cc1ccc(C(=O)c2ccccc2)cc1)C(=O)O; 1Nal = N[C@@H](Cc1cccc2ccccc12)C(=O)O; Aze = O=C(O)[C@@H]1CCN1; Aib = CC(C)(N)C(=O)O
# Biological target: T1, IL-1RtI (Homo sapiens, UniProt P14778)
# T1 construct: made in house; host or cells: recombinant host cells (one form soluble from baculovirus transformed host cells; another PIG-tailed and cleaved from the cell surface)
# T1 sequence (P14778 18-336): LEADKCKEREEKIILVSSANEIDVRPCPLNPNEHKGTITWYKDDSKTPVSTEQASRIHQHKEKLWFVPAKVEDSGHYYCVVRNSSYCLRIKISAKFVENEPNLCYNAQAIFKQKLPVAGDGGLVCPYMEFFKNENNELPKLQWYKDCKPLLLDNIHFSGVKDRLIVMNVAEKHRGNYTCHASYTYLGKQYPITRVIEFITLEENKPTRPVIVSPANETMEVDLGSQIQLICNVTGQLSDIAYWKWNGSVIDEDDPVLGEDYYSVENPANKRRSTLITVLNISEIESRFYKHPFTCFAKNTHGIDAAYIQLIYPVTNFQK
# Test: Inhibition of 125I-IL-1α binding to IL-1RtI (Example 3)
# Settings: inhibition of 125I-IL-1α binding to IL-1RtI; soluble peptide unless marked *
# Method: This example provides the results of experiments conducted to determine an approximate IC50 for certain peptides of the invention. IC50 as used herein refers to the concentration of a compound which will inhibit 50% of the binding between a receptor and its ligand, e.g. IL-1RtI and IL-1. Stock solutions of each peptide were prepared. The appropriate amount of the peptide was dissolved in DMSO, and then nineteen volumes of binding buffer (RPMI 1640, 1% BSA, 20 mM HEPES, pH 7.2-7.3, and 0.1% sodium azide) were added to yield a 1 mM peptide, 5% DMSO stock solution.
# One assay utilized a truncated IL-1RtI which had been immobilized on 96-well plates with an appropriate antibody, typically a non-blocking high affinity antibody. In other assays, cells expressing "full-length" IL-1RtI were used with results that yielded IC50 values about 5 to 10 fold lower than those determined using the truncated receptor. The cells were seeded onto Falcon 3072 96-well plates at about 10^5 cells per well, and the plates were incubated overnight at 37° C. in media containing serum. The following morning, the cells were checked to ensure that the cells were confluent and adhered to the bottom of the wells.
# According to either assay protocol, the plates were then washed three times with binding buffer, and then 50 μl of binding buffer and 25 μl of a peptide solution (either the stock solution or a dilution thereof; each stock was subjected to five three fold dilutions) were added to each well. Then 25 μl of binding buffer containing ^125 I-IL-1α (final concentration of 90 pM) were added to each well to begin the assay. Each assay was carried out in duplicate. The plates were then incubated for two hours at 4° C. For peptides having particularly high affinities, the assay was run in 24 well plates allowing for higher levels of ligand (possible total volume of 2.5 ml instead of 100 μl in the 96 well plate), thereby minimizing the potential for ligand depletion.
# After the two hour incubation, the wells were rinsed three times with ice cold PBS (a semi-automated cell harvesting device was used to conduct the rinse). The receptors or cells were then detached from the plates by adding 100 μl of 0.1N NaOH to each well and incubating the plates at room temperature for 20 minutes. After the 20 minute incubation, about 75 μl of the suspension was counted on a gamma counter, and the IC50 for each peptide was determined using computer assistance and the results of the gamma counting.
row,IC50,SMILES
1,≤ 500 nM,C[C@@H](O)[C@H](NC(=O)[C@H](Cc1c[nH]c2ccccc12)NC(=O)[C@H](CCC(=O)O)NC(=O)[C@@H](N)Cc1cccc2ccccc12)C(=O)N1CCC[C@H]1C(=O)NCC(=O)N[C@@H](Cc1ccc(O)cc1)C(=O)N[C@@H](Cc1ccc(O)cc1)C(=O)N[C@@H](CCC(N)=O)C(=O)N1CC[C@H]1C(=O)N[C@@H](Cc1ccc(O)cc1)C(N)=O [1Nap--EWTPGYYQJY--NH2] (H-[1Nal]EWTPGYYQ[Aze]Y-NH2)
2,≤ 100000 nM,C[C@H](N)C(=O)N[C@@H](CCC(=O)O)C(=O)N[C@@H](Cc1c[nH]c2ccccc12)C(=O)N[C@H](C(=O)N1CCC[C@H]1C(=O)NCC(=O)N[C@@H](Cc1ccc(O)cc1)C(=O)N[C@@H](Cc1c[nH]c2ccccc12)C(=O)N[C@@H](CCC(N)=O)C(=O)N1CC[C@H]1C(=O)N[C@@H](Cc1ccc(O)cc1)C(N)=O)[C@@H](C)O [AEWTPGYWQJY--NH2] (H-AEWTPGYWQ[Aze]Y-NH2)
3,≤ 500 nM,C[C@H](NC(=O)[C@@H](N)Cc1ccccc1)C(=O)N[C@@H](Cc1c[nH]c2ccccc12)C(=O)N[C@H](C(=O)N1CCC[C@H]1C(=O)NCC(=O)N[C@@H](Cc1ccc(O)cc1)C(=O)N[C@@H](Cc1c[nH]c2ccccc12)C(=O)N[C@@H](CCC(N)=O)C(=O)N1CC[C@H]1C(=O)N[C@@H](Cc1ccc(O)cc1)C(N)=O)[C@@H](C)O [FAWTPGYWQJY--NH2] (H-FAWTPGYWQ[Aze]Y-NH2)
4,≤ 100000 nM,C[C@H](NC(=O)[C@H](CCC(=O)O)NC(=O)[C@@H](N)Cc1ccccc1)C(=O)N[C@H](C(=O)N1CCC[C@H]1C(=O)NCC(=O)N[C@@H](Cc1ccc(O)cc1)C(=O)N[C@@H](Cc1c[nH]c2ccccc12)C(=O)N[C@@H](CCC(N)=O)C(=O)N1CC[C@H]1C(=O)N[C@@H](Cc1ccc(O)cc1)C(N)=O)[C@@H](C)O [FEATPGYWQJY--NH2] (H-FEATPGYWQ[Aze]Y-NH2)
5,≤ 500 nM,C[C@H](NC(=O)[C@H](Cc1c[nH]c2ccccc12)NC(=O)[C@H](CCC(=O)O)NC(=O)[C@@H](N)Cc1ccccc1)C(=O)N1CCC[C@H]1C(=O)NCC(=O)N[C@@H](Cc1ccc(O)cc1)C(=O)N[C@@H](Cc1c[nH]c2ccccc12)C(=O)N[C@@H](CCC(N)=O)C(=O)N1CC[C@H]1C(=O)N[C@@H](Cc1ccc(O)cc1)C(N)=O [FEWAPGYWQJY--NH2] (H-FEWAPGYWQ[Aze]Y-NH2)
6,≤ 500 nM,C[C@H](NC(=O)[C@@H](NC(=O)[C@H](Cc1c[nH]c2ccccc12)NC(=O)[C@H](CCC(=O)O)NC(=O)[C@@H](N)Cc1ccccc1)[C@@H](C)O)C(=O)NCC(=O)N[C@@H](Cc1ccc(O)cc1)C(=O)N[C@@H](Cc1c[nH]c2ccccc12)C(=O)N[C@@H](CCC(N)=O)C(=O)N1CC[C@H]1C(=O)N[C@@H](Cc1ccc(O)cc1)C(N)=O [FEWTAGYWQJY--NH2] (H-FEWTAGYWQ[Aze]Y-NH2)
7,≤ 100000 nM,C[C@@H](O)[C@H](NC(=O)[C@H](Cc1c[nH]c2ccccc12)NC(=O)[C@H](CCC(=O)O)NC(=O)[C@@H](N)Cc1ccccc1)C(=O)NCC(=O)NCC(=O)N[C@@H](Cc1ccc(O)cc1)C(=O)N[C@@H](Cc1c[nH]c2ccccc12)C(=O)N[C@@H](CCC(N)=O)C(=O)N1CC[C@H]1C(=O)N[C@@H](Cc1ccc(O)cc1)C(N)=O [FEWTGGYWQJY--NH2] (H-FEWTGGYWQ[Aze]Y-NH2)
8,≤ 500 nM,C[C@@H](O)[C@H](NC(=O)[C@H](Cc1c[nH]c2ccccc12)NC(=O)[C@H](CCC(=O)O)NC(=O)[C@@H](N)Cc1ccccc1)C(=O)N1CC[C@H]1C(=O)NCC(=O)N[C@@H](Cc1ccc(O)cc1)C(=O)N[C@@H](Cc1c[nH]c2ccccc12)C(=O)N[C@@H](CCC(N)=O)C(=O)N1CC[C@H]1C(=O)N[C@@H](Cc1ccc(O)cc1)C(N)=O [FEWTJGYWQJY--NH2] (H-FEWT[Aze]GYWQ[Aze]Y-NH2)
9,≤ 500 nM,C[C@H](NC(=O)[C@@H]1CCCN1C(=O)[C@@H](NC(=O)[C@H](Cc1c[nH]c2ccccc12)NC(=O)[C@H](CCC(=O)O)NC(=O)[C@@H](N)Cc1ccccc1)[C@@H](C)O)C(=O)N[C@@H](Cc1ccc(O)cc1)C(=O)N[C@@H](Cc1c[nH]c2ccccc12)C(=O)N[C@@H](CCC(N)=O)C(=O)N1CC[C@H]1C(=O)N[C@@H](Cc1ccc(O)cc1)C(N)=O [FEWTPAYWQJY--NH2] (H-FEWTPAYWQ[Aze]Y-NH2)
10,≤ 500 nM,C[C@@H](O)[C@H](NC(=O)[C@H](Cc1c[nH]c2ccccc12)NC(=O)[C@H](CCC(=O)O)NC(=O)[C@@H](N)Cc1ccccc1)C(=O)N1CCC[C@H]1C(=O)NC(C)(C)C(=O)N[C@@H](Cc1ccc(O)cc1)C(=O)N[C@@H](Cc1c[nH]c2ccccc12)C(=O)N[C@@H](CCC(N)=O)C(=O)N1CC[C@H]1C(=O)N[C@@H](Cc1ccc(O)cc1)C(N)=O [FEWTPAibYWQJY--NH2] (H-FEWTP[Aib]YWQ[Aze]Y-NH2)

row,SMILES,IC50
1,CC(=O)N[C@@H](Cc1ccc(C(=O)c2ccccc2)cc1)C(=O)N[C@@H](CCC(=O)O)C(=O)N[C@@H](Cc1c[nH]c2ccccc12)C(=O)N[C@H](C(=O)N1CCC[C@H]1C(=O)NCC(=O)N[C@@H](Cc1ccc(O)cc1)C(=O)N[C@@H](Cc1ccc(O)cc1)C(=O)N[C@@H](CCC(N)=O)C(=O)N1CC[C@H]1C(=O)N[C@@H](Cc1ccc(O)cc1)C(N)=O)[C@@H](C)O [AcBpa--EWTPGYYQJY--NH2] (Ac-[Bpa]EWTPGYYQ[Aze]Y-NH2),≤ 500 nM
2,CC(=O)N[C@@H](Cc1ccccc1)C(=O)N[C@@H](CCC(=O)O)C(=O)N[C@@H](Cc1ccc(C(=O)c2ccccc2)cc1)C(=O)N[C@H](C(=O)N1CCC[C@H]1C(=O)NCC(=O)N[C@@H](Cc1ccc(O)cc1)C(=O)N[C@@H](Cc1ccc(O)cc1)C(=O)N[C@@H](CCC(N)=O)C(=O)N1CC[C@H]1C(=O)N[C@@H](Cc1ccc(O)cc1)C(N)=O)[C@@H](C)O [AcFE--Bpa--TPGYYQJY--NH2] (Ac-FE[Bpa]TPGYYQ[Aze]Y-NH2),≤ 100000 nM
3,CC(=O)N[C@@H](Cc1ccccc1)C(=O)N[C@@H](CCC(=O)O)C(=O)N[C@@H](Cc1c[nH]c2ccccc12)C(=O)N[C@H](C(=O)N1CCC[C@H]1C(=O)NCC(=O)N[C@@H](Cc1ccc(C(=O)c2ccccc2)cc1)C(=O)N[C@@H](Cc1ccc(O)cc1)C(=O)N[C@@H](CCC(N)=O)C(=O)N1CC[C@H]1C(=O)N[C@@H](Cc1ccc(O)cc1)C(N)=O)[C@@H](C)O [AcFEWTPG--Bpa--YQJY--NH2] (Ac-FEWTPG[Bpa]YQ[Aze]Y-NH2),≤ 500 nM
4,CC(=O)N[C@@H](Cc1ccccc1)C(=O)N[C@@H](CCC(=O)O)C(=O)N[C@@H](Cc1c[nH]c2ccccc12)C(=O)N[C@H](C(=O)N1CCC[C@H]1C(=O)NCC(=O)N[C@@H](Cc1ccc(O)cc1)C(=O)N[C@@H](Cc1ccc(C(=O)c2ccccc2)cc1)C(=O)N[C@@H](CCC(N)=O)C(=O)N1CC[C@H]1C(=O)N[C@@H](Cc1ccc(O)cc1)C(N)=O)[C@@H](C)O [AcFEWTPGY--Bpa--QJY--NH2] (Ac-FEWTPGY[Bpa]Q[Aze]Y-NH2),≤ 500 nM
5,CC(=O)N[C@@H](Cc1ccccc1)C(=O)N[C@@H](CCC(=O)O)C(=O)N[C@@H](Cc1c[nH]c2ccccc12)C(=O)N[C@H](C(=O)N1CCC[C@H]1C(=O)NCC(=O)N[C@@H](Cc1ccc(O)cc1)C(=O)N[C@@H](Cc1ccc(O)cc1)C(=O)N[C@@H](CCC(N)=O)C(=O)N1CC[C@H]1C(=O)N[C@@H](Cc1ccc(C(=O)c2ccccc2)cc1)C(N)=O)[C@@H](C)O [AcFEWTPGYYQJ--Bpa--NH2] (Ac-FEWTPGYYQ[Aze][Bpa]-NH2),≤ 100000 nM
6,C[C@@H](O)[C@H](NC(=O)[C@H](Cc1c[nH]c2ccccc12)NC(=O)[C@H](CCC(=O)O)NC(=O)[C@@H](N)Cc1ccc(C(=O)c2ccccc2)cc1)C(=O)N1CCC[C@H]1C(=O)NCC(=O)N[C@@H](Cc1ccc(O)cc1)C(=O)N[C@@H](Cc1ccc(O)cc1)C(=O)N[C@@H](CCC(N)=O)C(=O)N1CC[C@H]1C(=O)N[C@@H](Cc1ccc(O)cc1)C(N)=O [Bpa--EWTPGYYQJY--NH2] (H-[Bpa]EWTPGYYQ[Aze]Y-NH2),≤ 500 nM
7,C[C@@H](O)[C@H](NC(=O)[C@H](Cc1ccc(C(=O)c2ccccc2)cc1)NC(=O)[C@H](CCC(=O)O)NC(=O)[C@@H](N)Cc1ccccc1)C(=O)N1CCC[C@H]1C(=O)NCC(=O)N[C@@H](Cc1ccc(O)cc1)C(=O)N[C@@H](Cc1ccc(O)cc1)C(=O)N[C@@H](CCC(N)=O)C(=O)N1CC[C@H]1C(=O)N[C@@H](Cc1ccc(O)cc1)C(N)=O [FE--Bpa--TPGYYQJY--NH2] (H-FE[Bpa]TPGYYQ[Aze]Y-NH2),> 100000 nM
